Tests used:
JAK3 enzyme [1] = biological target: T1, JAK3 enzyme (Homo sapiens, UniProt P52333); assay: JAK Caliper Enzyme Assay at 1 mM ATP; format: biochemical
T1 sequence (P52333 1-1124): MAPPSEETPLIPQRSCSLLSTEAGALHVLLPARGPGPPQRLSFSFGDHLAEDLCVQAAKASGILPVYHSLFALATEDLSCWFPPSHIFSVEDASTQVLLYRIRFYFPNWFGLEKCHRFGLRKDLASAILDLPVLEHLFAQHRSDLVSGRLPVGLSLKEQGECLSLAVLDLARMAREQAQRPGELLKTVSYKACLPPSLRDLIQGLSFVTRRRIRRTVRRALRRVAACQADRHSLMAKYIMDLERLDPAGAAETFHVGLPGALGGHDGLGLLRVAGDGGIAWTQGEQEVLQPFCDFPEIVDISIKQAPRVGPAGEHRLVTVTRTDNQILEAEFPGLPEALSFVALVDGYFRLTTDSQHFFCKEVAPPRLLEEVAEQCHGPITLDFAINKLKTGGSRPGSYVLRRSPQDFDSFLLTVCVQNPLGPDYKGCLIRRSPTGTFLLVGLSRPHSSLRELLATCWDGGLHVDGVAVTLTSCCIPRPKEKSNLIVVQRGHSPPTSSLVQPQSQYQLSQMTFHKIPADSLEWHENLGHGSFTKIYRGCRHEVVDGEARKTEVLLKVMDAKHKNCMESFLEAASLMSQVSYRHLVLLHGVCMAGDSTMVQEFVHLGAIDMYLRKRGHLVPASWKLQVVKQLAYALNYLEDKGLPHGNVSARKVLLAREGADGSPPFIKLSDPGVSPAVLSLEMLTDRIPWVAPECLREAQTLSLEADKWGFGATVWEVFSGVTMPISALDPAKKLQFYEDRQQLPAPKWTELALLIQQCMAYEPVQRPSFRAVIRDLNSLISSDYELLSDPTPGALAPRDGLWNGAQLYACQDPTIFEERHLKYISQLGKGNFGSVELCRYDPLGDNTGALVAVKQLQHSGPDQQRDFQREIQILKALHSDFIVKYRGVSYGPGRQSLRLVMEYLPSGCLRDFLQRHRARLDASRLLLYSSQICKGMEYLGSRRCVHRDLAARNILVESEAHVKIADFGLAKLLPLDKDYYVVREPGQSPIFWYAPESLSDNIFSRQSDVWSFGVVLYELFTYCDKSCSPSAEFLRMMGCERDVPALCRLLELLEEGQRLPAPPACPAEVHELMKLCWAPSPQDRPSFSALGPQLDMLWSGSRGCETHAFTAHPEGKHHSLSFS
Method in brief: (§1)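 Read-out: microfluidic mobility-shift separation quantifying substrate peptide versus phosphopeptide. Compounds were tested as 11-point half-log dilutions, top 600 μM in DMSO before transfer. Enzyme level and reaction time were tuned for each prep so conversion stayed at 20%-30%.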

[2] = system: IL-15 induced P-STAT5 in human PBMC; assay: PBMC IL-15 Induced P-STAT5; format: cell-based; conditions: human PBMC, IL-15 final 41 ng/mL; read-out: PBMC IL15_pSTAT5_IC50
Method in brief: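 Flow cytometry gated on total lymphocytes measured STAT5 staining (Alexa Fluor 647 antibody, overnight, 4 °C) in fixed, methanol-permeabilised human PBMC. Cells had received compound for 15 min at 37 °C (0.2% DMSO final), followed by 41 ng/mL final human IL-15 for 15 min.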

[3] = system: IL-15 induced STAT5 phosphorylation in human whole blood lymphocytes; assay: HWB IL-15 Induced STAT5 Phosphorylation Assay; format: cell-based; conditions: Lymphocyte, IL-15 final 50 ng/ml, read-out: HWB_IL15 pSTAT5 IC50
Method: HWB IL-15 Induced STAT5 Phosphorylation Assay
After serial dilution of the test compounds 1:2 in DMSO at desired concentration (500× of final), the compounds were further diluted in PBS (by adding 4 μL compound/DMSO in 96 μL PBS, [DMSO]=4%, 20× final). To 96-well polypropylene plates were added 90 μl HWB (heparin treated Human Whole Blood)/well, followed by 5 μl/well 4% DMSO in D-PBS or various concentrations of 20× inhibitor in 4% DMSO in D-PBS (w/o Ca^+2 or Mg^+2) to give 1× in 0.2% DMSO. After mixing and incubating for 45 minutes at 37° C., 5 μl D-PBS (unstimulated control) or 20× stocks of 5 μl human IL-15 (final concentration is 50 ng/ml) were added, and mixed three times. After incubating 15 minutes at 37° C., 1× Lyse/Fix Buffer (BD Phosflow 5× Lyse/Fix Buffer) was added to all wells at 1000 μl/well, then incubated for 20 minutes at 37° C. and spun 5 mins at 1200 rpm. After washing in 1000 μl FACS buffer 1× and spinning for 5 mins at 1200 rpm, 400 μl ice cold Perm Buffer III were added to each well. After mixing gently (1-2×) and incubating on ice for 30 minutes, spinning for 5 mins at 1200 rpm without interruption, and washing 1× in cold […] FACS buffer (D-PBS containing 0.1% BSA and 0.1% sodium azide) 250 μl/well of the desired AlexaFluor647-conjugated anti-phospho STATS antibody at 1:125 dilution in FACS buffer was added. Following incubating at 4° C. over night, all the samples were transferred to 96-well polypropylene U-bottom plate, and checked by flow cytometry gated on total lymphocytes.

JAK3 enzyme [4] = biological target: T1, JAK3 enzyme; assay: JAK Caliper Enzyme Assay at 4 μM ATP; format: biochemical
Method in brief: as §1

Row | IC50 (JAK3 enzyme [1]) | IC50 [3] | IC50 (JAK3 enzyme [4]) | SMILES | IC50 [2]
1 | 129 nM | 1450 nM | 0.643 nM | C=CC(=O)N1CC[C@@H](Nc2cnc3[nH]cc(C(=O)N[C@@H]4C[C@H]4C(F)(F)F)c3n2)[C@@H](OC)C1 [Example 316, 2-{[(3S,4R)-1-acryloyl-3-methoxypiperidin-4-yl]amino}-N-[(1R,2R)-2-(trifluoromethyl)cyclopropyl]-5H-pyrrolo[2,3-b]pyrazine-7-carboxamide] | 294 nM
2 | 77 nM | 835 nM | 0.979 nM | C=CC(=O)N1CC[C@@H](Nc2cnc3[nH]cc(C(=O)NCC(F)(F)F)c3n2)[C@@H](OC)C1 [Example 317, 2-{[(3S,4R)-1-acryloyl-3-methoxypiperidin-4-yl]amino}-N-(2,2,2-trifluoroethyl)-5H-pyrrolo[2,3-b]pyrazine-7-carboxamide] | 315 nM
3 | 59 nM | 1760 nM | 0.535 nM | C=CC(=O)N1CCN(c2cnc3[nH]cc(C(=O)N[C@H](CC)CC#N)c3n2)CC1(C)C [Example 318, 2-(4-acryloyl-3,3-dimethylpiperazin-1-yl)-N-[(2R)-1-cyanobutan-2-yl]-5H-pyrrolo[2,3-b]pyrazine-7-carboxamide] | 214 nM
4 | 60 nM | 6290 nM | 0.587 nM | C=CC(=O)N1CCN(c2cnc3[nH]cc(C(=O)NCCC(F)(F)F)c3n2)C[C@@H]1CC(C)C [Example 329, 2-[(3S)-4-acryloyl-3-(2-methylpropyl)piperazin-1-yl]-N-(3,3,3-trifluoropropyl)-5H-pyrrolo[2,3-b]pyrazine-7-carboxamide] | 247 nM
5 | 45 nM | 1970 nM | 0.287 nM | C=CC(=O)N1CCN(c2cnc3[nH]cc(C(=O)NCC(C)(C)C)c3n2)C[C@@H]1CC(C)C [Example 330, 2-[(3S)-4-acryloyl-3-(2-methylpropyl)piperazin-1-yl]-N-(2,2-dimethylpropyl)-5H-pyrrolo[2,3-b]pyrazine-7-carboxamide] | 122 nM
6 | 93 nM | 3920 nM | 0.703 nM | C=CC(=O)N1CCN(c2cnc3[nH]cc(C(=O)NC4CCCC4)c3n2)CC1(C)C [Example 334, 2-(4-acryloyl-3,3-dimethylpiperazin-1-yl)-N-cyclopentyl-5H-pyrrolo[2,3-b]pyrazine-7-carboxamide] | 73.6 nM
7 | 26 nM | 373 nM | 0.24 nM | C=CC(=O)N1CCN(c2cnc3[nH]cc(C(=O)NC[C@H](C)CC(F)(F)F)c3n2)CC1 [Example 336, 2-(4-acryloylpiperazin-1-yl)-N-[(2R)-4,4,4-trifluoro-2-methylbutyl]-5H-pyrrolo[2,3-b]pyrazine-7-carboxamide] | 107 nM
